Results taken from ChEMBL document CHEMBL3102731, “Structure-activity relationship studies and biological characterization of human NAD(+)-dependent 15-hydroxyprostaglandin dehydrogenase inhibitors” (Bioorg Med Chem Lett, 2014).

How the values were obtained:
[1] = Kinetic solubility of the compound in PBS buffer at pH 7.4; format: physicochemical
Liver microsome = assay: Half life in rat liver microsomes in presence of NADPH; format: ADME
[2] = biological target: T1, 15-hydroxyprostaglandin dehydrogenase [NAD(+)] (Homo sapiens, UniProt P15428); assay: Inhibition of human HPGD using PGE2 as substrate after 15 mins by fluorescence assay
T1 sequence (P15428 whole entry): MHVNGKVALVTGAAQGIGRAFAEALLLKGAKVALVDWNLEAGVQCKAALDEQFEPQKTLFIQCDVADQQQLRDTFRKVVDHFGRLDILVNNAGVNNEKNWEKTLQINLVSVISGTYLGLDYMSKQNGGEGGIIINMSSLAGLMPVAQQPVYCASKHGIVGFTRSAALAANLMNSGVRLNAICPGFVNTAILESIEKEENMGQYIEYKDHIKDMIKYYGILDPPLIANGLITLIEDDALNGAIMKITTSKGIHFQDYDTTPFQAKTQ

LNCaP [3] = assay: Induction of PGE2 production in human LNCAP cells at 41.9 nM to 100 uM after 16 hrs by HTRF assay relative to control; format: functional
LNCaP [4] = assay: Induction of PGE2 production in human LNCAP cells assessed as half-maximal activation concentration after 16 hrs by HTRF assay; format: functional, cell-based
A549 [5] = assay: Induction of PGE2 production in human A549 cells at 775 pM to 45.8 uM after 4 to 20 hrs by HTRF assay relative to control; format: functional
A549 [6] = assay: Induction of PGE2 production in human A549 cells assessed as concentration required for half-maximal activation after 4 to 20 hrs by HTRF assay; format: functional, cell-based
[7] = Passive permeability of the compound at pH 7.4 by PAMPA; format: ADME
[8] = biological target: T2, Peroxisomal multifunctional enzyme type 2 (Homo sapiens, UniProt P51659); assay: Inhibition of HSD17beta4 (unknown origin) using NAD+/estradiol as substrate at 324 pM to 57.2 uM after 15 mins by UV-fluorescence assay
T2 sequence (P51659 whole entry): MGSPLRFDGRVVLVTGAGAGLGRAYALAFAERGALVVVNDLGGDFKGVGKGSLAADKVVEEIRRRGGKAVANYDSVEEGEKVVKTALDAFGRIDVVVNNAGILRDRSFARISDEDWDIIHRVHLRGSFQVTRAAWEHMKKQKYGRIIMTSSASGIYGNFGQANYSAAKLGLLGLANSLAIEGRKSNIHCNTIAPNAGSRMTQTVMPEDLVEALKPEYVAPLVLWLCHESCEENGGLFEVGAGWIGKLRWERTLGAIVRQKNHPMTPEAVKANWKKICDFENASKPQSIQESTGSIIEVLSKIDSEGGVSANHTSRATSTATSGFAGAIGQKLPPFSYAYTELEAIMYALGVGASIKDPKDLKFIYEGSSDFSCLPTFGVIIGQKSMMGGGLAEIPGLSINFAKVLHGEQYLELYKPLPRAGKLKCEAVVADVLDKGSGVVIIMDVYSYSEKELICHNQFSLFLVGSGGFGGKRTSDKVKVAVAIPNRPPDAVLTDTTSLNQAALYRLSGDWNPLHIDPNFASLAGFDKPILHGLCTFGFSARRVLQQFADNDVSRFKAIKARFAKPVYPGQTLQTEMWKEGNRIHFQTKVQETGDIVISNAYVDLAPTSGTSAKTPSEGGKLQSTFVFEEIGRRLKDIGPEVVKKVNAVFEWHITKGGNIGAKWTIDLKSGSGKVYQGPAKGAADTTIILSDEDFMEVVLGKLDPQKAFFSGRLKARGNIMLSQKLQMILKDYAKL

[9] = biological target: L-lactate dehydrogenase B chain (Homo sapiens, UniProt P07195); assay: Inhibition of LDHB (unknown origin) using sodium pyruvate as substrate at 0.46 to 57.5 uM after 15 mins by fluorescence assay
Chain of L-lactate dehydrogenase B chain (P07195 whole entry): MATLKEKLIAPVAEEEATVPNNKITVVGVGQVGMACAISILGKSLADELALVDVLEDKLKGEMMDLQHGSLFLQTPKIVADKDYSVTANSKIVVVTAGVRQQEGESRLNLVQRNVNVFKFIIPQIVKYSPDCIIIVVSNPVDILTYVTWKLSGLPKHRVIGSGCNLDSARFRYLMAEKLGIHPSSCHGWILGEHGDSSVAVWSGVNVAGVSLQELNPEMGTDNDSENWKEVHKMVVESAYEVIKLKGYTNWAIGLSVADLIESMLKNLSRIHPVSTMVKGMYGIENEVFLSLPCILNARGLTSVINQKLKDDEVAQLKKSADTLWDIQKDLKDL

[10] = biological target: Glyceraldehyde-3-phosphate dehydrogenase (Oryctolagus cuniculus, UniProt P46406); assay: Inhibition of rabbit muscle GAPDH using glyceraldehyde-3-phosphate as substrate at 324 pM to 57.2 uM by fluorescence assay
Chain of Glyceraldehyde-3-phosphate dehydrogenase (P46406 whole entry): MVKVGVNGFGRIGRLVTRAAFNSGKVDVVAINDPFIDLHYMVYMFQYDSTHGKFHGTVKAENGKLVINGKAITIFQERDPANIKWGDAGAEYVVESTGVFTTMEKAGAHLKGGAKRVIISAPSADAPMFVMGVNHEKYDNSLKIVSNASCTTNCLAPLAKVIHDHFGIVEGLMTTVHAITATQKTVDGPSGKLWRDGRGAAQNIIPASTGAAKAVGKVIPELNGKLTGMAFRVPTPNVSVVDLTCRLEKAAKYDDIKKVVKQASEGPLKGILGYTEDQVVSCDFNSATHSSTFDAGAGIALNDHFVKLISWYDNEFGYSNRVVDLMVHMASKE

[11] = biological target: L-lactate dehydrogenase A chain (Homo sapiens, UniProt P00338); assay: Inhibition of LDHA (unknown origin) using sodium pyruvate as substrate at 0.46 to 57.5 uM after 15 mins by fluorescence assay
[12] = biological target: T3, Aldehyde dehydrogenase 1A1 (Homo sapiens, UniProt P00352); assay: Inhibition of ALDH1A1 (unknown origin) using NAD+/propionaldehyde as substrate after 15 mins by UV-fluorescence assay
T3 sequence (P00352 whole entry): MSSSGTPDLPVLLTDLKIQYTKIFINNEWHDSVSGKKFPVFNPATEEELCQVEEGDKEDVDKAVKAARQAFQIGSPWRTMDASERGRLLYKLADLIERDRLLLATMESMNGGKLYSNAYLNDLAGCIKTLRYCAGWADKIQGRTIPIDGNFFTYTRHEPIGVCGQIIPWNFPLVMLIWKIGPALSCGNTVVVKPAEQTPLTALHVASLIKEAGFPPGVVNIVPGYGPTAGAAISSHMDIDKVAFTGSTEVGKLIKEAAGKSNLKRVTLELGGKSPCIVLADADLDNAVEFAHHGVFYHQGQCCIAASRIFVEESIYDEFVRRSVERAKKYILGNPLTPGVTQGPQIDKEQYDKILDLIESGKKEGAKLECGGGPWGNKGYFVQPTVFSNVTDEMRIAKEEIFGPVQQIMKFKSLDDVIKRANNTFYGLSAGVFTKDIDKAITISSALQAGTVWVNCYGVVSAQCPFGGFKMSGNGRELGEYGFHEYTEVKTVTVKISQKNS

IC50 [2]	SMILES	further results
54 nM	Cc1cc(-c2nnc3n2CCCCC3)c(C)n1-c1ccccc1	Kinetic_solubility [1]: > 45 µM; Activity (LNCaP [3]): 73%; Activity (A549 [5]): 106%; permeability [7]: 599 ×10⁻⁶ cm/s
121 nM	Cc1cc(-c2nnc3n2CCCCC3)c(C)n1-c1ccc(F)cc1	–
27 nM	COc1ccccc1-n1cnc2cc(C(=O)N3CCCCC3)ccc21	–
38 nM	Cc1cc(-c2nnc3n2CCCCC3)c(C)n1-c1ccc(Cl)cc1	–
48 nM	Cc1cc(-c2nnc3n2CCCCC3)c(C)n1-c1ccc(Br)cc1	–
68 nM	Cc1cc(-c2nnc3n2CCCCC3)c(C)n1-c1ccc(C(F)(F)F)cc1	–
76 nM	Cc1cc(-c2nnc3n2CCCCC3)c(C)n1-c1cccc(C#N)c1	IC50 [8]: Not Active; IC50 [9]: Not Active; Kinetic_solubility [1]: > 49 µM; IC50 [10]: Not Active; t1/2 (Liver microsome): 8.1 min; Activity (LNCaP [3]): 63%; AC50 (LNCaP [4]): 1770 nM; Activity (A549 [5]): 350%; IC50 [11]: Not Active; AC50 (A549 [6]): 2640 nM; permeability [7]: 229 ×10⁻⁶ cm/s; IC50 [12]: 6810 nM
96 nM	Cc1cc(-c2nnc3n2CCCCC3)c(C)n1-c1ccc(C#N)cc1	–
86 nM	COc1ccc(-n2c(C)cc(-c3nnc4n3CCCCC4)c2C)cc1	–
108 nM	Cc1cc(-c2nnc3n2CCCCC3)c(C)n1-c1ccc([N+](=O)[O-])cc1	–
136 nM	Cc1cc(-c2nnc3n2CCCCC3)c(C)n1-c1ccc(C(C)(C)C)cc1	–
38 nM	CCOC(=O)c1ccc(-n2c(C)cc(-c3nnc4n3CCCCC4)c2C)cc1	–
1080 nM	Cc1cc(-c2nnc3n2CCCCC3)c(C)n1-c1ccccn1	–
271 nM	Cc1cc(-c2nnc3n2CCCCC3)c(C)n1-c1cccnc1	–
383 nM	Cc1cc(-c2nnc3n2CCCCC3)c(C)n1-c1ccncc1	–
108 nM	Cc1cc(-c2nnc3n2CCCCC3)c(C)n1-c1cccc2ccccc12	–
3040 nM	Cc1cc(-c2nnc3n2CCC3)c(C)n1-c1ccccc1	–
192 nM	Cc1cc(-c2nnc3n2CCCC3)c(C)n1-c1ccccc1	–
242 nM	Cc1cc(-c2nnc3n2CCCCCC3)c(C)n1-c1ccccc1	–
383 nM	Cc1cc(-c2nnc3n2CCCCCCC3)c(C)n1-c1ccccc1	–
607 nM	c1ccc(-n2ccc(-c3nnc4n3CCCCC4)c2)cc1	–
3830 nM	c1ccc(-n2ccc(-c3nnc4n3CCCCC4)n2)cc1	–
681 nM	c1ccc(-n2cc(-c3nnc4n3CCCCC4)c3ccccc32)cc1	–

SMILES	IC50 [2]	further results
Cc1cccc(-n2cnc3cc(C(=O)N4CCCCC4)ccc32)c1	19 nM	Kinetic_solubility [1]: > 47 µM; t1/2 (Liver microsome): 7.3 min; Activity (LNCaP [3]): 62%; AC50 (LNCaP [4]): 884 nM; Activity (A549 [5]): 129%; AC50 (A549 [6]): 469 nM; permeability [7]: 1200 ×10⁻⁶ cm/s
